The values that follow come from US20200000976A1, “A MEDICAL IMPLANT AND A METHOD OF COATING A MEDICAL IMPLANT” (priority 2016, published 2020).

The subject of data set [1] is osteoblasts derived from trabecular bone. Conditions: cited from earlier work.
Data set [2] in a line: binding and release of antimicrobial silver on Ti, PCL and PEEK (previous in house work). The format is physicochemical.
The conditions of data set [3]: Palacos cement; cited from earlier work.
The conditions of data set [4]: Palacos cement; cited from earlier work. The source holds these as a separate data set.

In the case of `NC[C@H]1O[C@H](O[C@H]2[C@H](O)[C@@H](O[C@H]3O[C@H](CO)[C@@H](O)[C@H](N)[C@H]3O)[C@H](N)C[C@@H]2N)[C@H](N)C[C@@H]1O` [Tobramycin, tobramycin], in data set [1], the higher concentrations at which replication decreases and eventually cell death occurs was over 400 µg/mL; the low levels with no or little effect on the replication of osteoblasts was under 200 µg/mL.
In the case of `[Ag]` [antimicrobial silver, silver], the “time of release above MIC” value in data set [2] is 40 days. Moreover, in data set [2] (for 40 days), the “released level (above MIC)” value is listed as “above 1 ug/mL”.
Consider `CN[C@H](CC(C)C)C(=O)N[C@H]1C(=O)N[C@@H](CC(N)=O)C(=O)N[C@H]2C(=O)N[C@H]3C(=O)N[C@H](C(=O)N[C@H](C(=O)O)c4cc(O)cc(O)c4-c4cc3ccc4O)[C@H](O)c3ccc(c(Cl)c3)Oc3cc2cc(c3O[C@@H]2O[C@H](CO)[C@@H](O)[C@H](O)[C@H]2O[C@H]2C[C@](C)(N)[C@H](O)[C@H](C)O2)Oc2ccc(cc2Cl)[C@H]1O` [vancomycin], for which, in data set [1], the “high concentrations at which cell death of osteoblasts occurs” value is given as 10,000 /mL and the low levels with no or little effect on the replication of osteoblasts is under 1 µg/mL.
In the case of gentamicin, the “levels impeding 3H-thymidine levels” value in data set [1] is over 100 mL⁻¹. The “elution from cement at low doses” value in data set [3] is reported as “very little elution occurs”. Also, the “effects at high concentrations” value in data set [4] was “local cytotoxic effects”.
As for teicoplanin, the “elution from cement at low doses” value in data set [3] is “very little elution occurs”. The “effects at high concentrations” value in data set [4] is “local cytotoxic effects”.
